Test results published in patent US8653096B2, “Chemokine receptor antagonists and methods of use thereof” (Millennium Pharmaceuticals, Inc., priority 2001, dated 2014).
Values belong to the compound of their own block, whether it stands above or below them.

Target: T1, RANTES/MIP-1α chemokine receptor (CCR1) in THP-1 cell membranes (Homo sapiens, UniProt P32246)
T1 construct: Membranes were prepared from THP-1 cells (ATCC #TIB202); host or cells: THP-1 cells (membrane preparation)
T1 sequence (P32246 1-355): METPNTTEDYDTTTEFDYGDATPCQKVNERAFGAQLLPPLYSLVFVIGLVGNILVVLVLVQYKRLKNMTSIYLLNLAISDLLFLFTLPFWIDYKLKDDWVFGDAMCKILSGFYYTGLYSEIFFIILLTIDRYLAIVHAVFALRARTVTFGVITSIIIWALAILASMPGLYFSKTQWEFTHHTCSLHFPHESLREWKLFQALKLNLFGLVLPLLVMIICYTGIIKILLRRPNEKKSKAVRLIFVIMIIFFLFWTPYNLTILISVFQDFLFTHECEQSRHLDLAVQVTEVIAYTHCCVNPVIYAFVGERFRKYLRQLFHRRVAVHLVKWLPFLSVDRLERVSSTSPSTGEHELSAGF
Assay: Receptor binding assay: 125I-RANTES or 125I-MIP-1α binding to THP-1 cell membranes
Conditions: inhibitor concentration required for 50% inhibition of specific binding; 125I-RANTES or 125I-MIP-1α as ligand, THP-1 cell membranes; read-out: IC50

Structure (SMILES): CC(C)(O)c1ccc2c(c1)C(=CCCN1CCC(O)(c3ccc(Cl)cc3)C(O)C1)c1cccnc1CO2 (centres unmarked) [Example 470, 4-(4-Chloro-phenyl)-1-{3-[7-(1-hydroxy-1-methyl-ethyl)-11H-10-oxa-1-aza-dibenzo[a,d]cyclohepten-5-ylidene]-propyl}-piperidine-3,4-diol]
IC50: < 1000 nM

Structure (SMILES): CCC1CN(CCC=C2c3cc(C(C)(C)O)ccc3OCc3ncccc32)CCC1(O)c1ccc(Cl)cc1 (centres unmarked) [Example 471, 4-(4-Chloro-phenyl)-3-ethyl-1-{3-[7-(1-hydroxy-1-methyl-ethyl)-11H-10-oxa-1-aza-dibenzo[a,d]cyclohepten-5-ylidene]-propyl}-piperidin-4-ol]
IC50: < 1000 nM

Structure (SMILES): CC(C)(O)c1ccc2c(c1)C(=CCCN1CCC3(CC1)OC(=O)c1cc(Cl)ccc13)c1cccnc1CO2 [Example 472, 5-Chloro-1-{3-[7-(1-hydroxy-1-methyl-ethyl)-11H-10-oxa-1-aza-dibenzo[a,d]-cyclohepten-5-ylidene}-propyl]-spiro[3-oxo-1,3-dihydroisobenzofuran-1,4′-piperidine]]
IC50: < 1000 nM

Structure (SMILES): COC1(c2ccc(Cl)cc2)CCN(CCC=C2c3cc(C(C)(C)O)ccc3OCc3ncccc32)CC1(C)O (centres unmarked) [Example 473, 4-(4-Chloro-phenyl)-1-{3-[7-(1-hydroxy-1-methyl-ethyl)-11H-10-oxa-1-aza-dibenzo[a,d]cyclohepten-5-ylidene]-propyl}-4-methoxy-3-methyl-piperidin-3-ol]
IC50: < 1000 nM

Structure (SMILES): COC1(c2ccc(Cl)cc2)CCN(CCC=C2c3cc(C(C)(C)O)ccc3OCc3ncccc32)CC1O (centres unmarked) [Example 474, 4-(4-Chloro-phenyl)-1-{3-[7-(1-hydroxy-1-methyl-ethyl)-11H-10-oxa-1-aza-dibenzo[a,d]cyclohepten-5-ylidene]-propyl}-4-methoxy-piperidin-3-ol]
IC50: < 1000 nM

Structure (SMILES): COC1CN(CCC=C2c3cc(C(C)(C)O)ccc3OCc3ncccc32)CCC1(OC)c1ccc(Cl)cc1 (centres unmarked) [Example 475, 2-(5-{3-[4-(4-Chloro-phenyl)-3,4-dimethoxy-piperidin-1-yl]-propylidene}-5,11-dihydro-10-oxa-1-aza-dibenzo[a,d]cyclohepten-7-yl)-propan-2-ol]
IC50: < 1000 nM

Structure (SMILES): CC(C)(O)c1ccc2c(c1)C(=CCCN1CCC(O)(c3ccc(Cl)cc3)C(N=[N+]=[N-])C1)c1cccnc1CO2 (centres unmarked) [Example 476, 3-Azido-4-(4-chloro-phenyl)-1-{3-[7-(1-hydroxy-1-methyl-ethyl)-11H-10-oxa-1-aza-dibenzo[a,d]cyclohepten-5-ylidene}-propyl}-piperidin-4-ol]
IC50: < 1000 nM

IC50: < 10000 nM
Structure (SMILES): CC(C)(O)c1ccc2c(c1)C(=CCCN1CCC(N=[N+]=[N-])(c3ccc(Cl)cc3)C(O)C1)c1cccnc1CO2 (centres unmarked) [Example 477, 4-Azido-4-(4-chloro-phenyl)-1-{3-[7-(1-hydroxy-1-methyl-ethyl)-11H-10-oxa-1-aza-dibenzo[a,d]cyclohepten-5-ylidene]-propyl}-piperidin-3-ol]

Structure (SMILES): CCC(=O)NC1CN(CCC=C2c3cc(C(C)(C)O)ccc3OCc3ncccc32)CCC1(O)c1ccc(Cl)cc1 (centres unmarked) [Example 478, N-[4-(4-Chloro-phenyl)-4-hydroxy-1-{3-[7-(hydroxyl-1-methyl-ethyl)-11H-10-oxa-1-aza-dibenzo[a,d]cyclohepten-5-ylidene]-propyl}-piperidin-3-yl)-propionamide]
IC50: < 10000 nM

Structure (SMILES): COC(=O)C1(C)CN(CCC=C2c3cc(C(C)(C)O)ccc3OCc3ncccc32)CCC1(O)c1ccc(Cl)cc1 (centres unmarked) [Example 481, 4-(4-Chloro-phenyl)-4-hydroxy-1-{3-[7-(hydroxyl-1-methyl-ethyl)-11H-10-oxa-1-aza-dibenzo[a,d]cyclohepten-5-ylidene}-propyl]-3-methyl-piperidine-3-carboxylic acid methyl ester]
IC50: < 1000 nM

Structure (SMILES): CC(C)(O)c1ccc2c(c1)C(=CCCN1CCC(O)(c3ccc(Cl)cc3)C(C)(CO)C1)c1cccnc1CO2 (centres unmarked) [Example 482, 4-(4-Chloro-phenyl)-3-hydroxymethyl-1-{3-[7-(hydroxyl-1-methyl-ethyl)-11H-10-oxa-1-aza-dibenzo[a, d]cyclohepten-5-ylidene]-propyl}-3-methyl-piperidine-4-ol]
IC50: < 1000 nM

Structure (SMILES): CCOCC1(C)CN(CCC=C2c3cc(C(C)(C)O)ccc3OCc3ncccc32)CCC1(O)c1ccc(Cl)cc1 (centres unmarked) [Example 484, 4-(4-Chloro-phenyl)-3-ethoxymethyl-1-{3 [7-(-hydroxy-1-methyl-ethyl)-11H-10-oxa-1-aza-dibenzo[a,d]cyclohepten-5-ylidene]-propyl}-3-methyl-piperidin-4-ol]
IC50: < 1000 nM

Structure (SMILES): CCOC(=O)COCC1(C)CN(CCC=C2c3cc(C(C)(C)O)ccc3OCc3ncccc32)CCC1(O)c1ccc(Cl)cc1 (centres unmarked) [Example 485, (4-(4-Chloro-phenyl)-4-hydroxy-1-{3 [7-(1-hydroxy-1-methyl-ethyl)-11H-10-oxa-1-aza-dibenzo[a,d]cyclohepten-5-ylidene]-propyl}-3-methyl-piperidin-3-ylmethoxy)-acetic acid ethyl ester]
IC50: < 1000 nM

Structure (SMILES): CCN(CC)CCOCC1(C)CN(CCC=C2c3cc(C(C)(C)O)ccc3OCc3ncccc32)CCC1(O)c1ccc(Cl)cc1 (centres unmarked) [Example 486]
IC50: < 1000 nM

IC50: < 1000 nM
Structure (SMILES): CCN(Cc1ccc(Cl)cc1)C1CCN(CCC=C2c3cc(C(C)(C)O)ccc3OCc3ncccc32)CC1 [Example 487, 2-[5-(3-{4-[(4-Chloro-benzyl)ethyl-amino]-piperidin-1-yl}-propylidene)-5,11-dihydro-10-oxa-1-aza-dibenzo[a,d]cyclohepten-7-yl]-propan-2-ol]

Structure (SMILES): CC(C)(O)c1ccc2c(c1)C(=CCCN1CCC(O)(c3ccccc3Cl)CC1)c1cccnc1CO2 [Example 489, 4-(2-Chloro-phenyl)-1-{3-[7-(1-hydroxy-1-methyl-ethyl)-11H-10-oxa-1-azadibenzo[a,d]cyclohepten-5-ylidene]-propyl}-piperidin-4-ol]
IC50: < 10000 nM

IC50: < 1000 nM
Structure (SMILES): Cc1cc(Cl)ccc1C1(O)CCN(CCC=C2c3cc(C(C)(C)O)ccc3OCc3ncccc32)CC1 [Example 490, 4-(4-Chloro-2-methyl-phenyl)-1-{3-[7-(1-hydroxy-1-methyl-ethyl)-11H-10-oxa-1-aza-dibenzo[a,d]cyclohepten-5-ylidene]-propyl}-piperidin-4-ol]

Structure (SMILES): CC(C)(O)c1ccc2c(c1)C(=CCCN1CCC(O)(c3ccc(Cl)c(Cl)c3)CC1)c1cccnc1CO2 [Example 491, 4-(3,4-Dichloro-phenyl)-1-{3-[7-(1-hydroxy-1-methyl-ethyl)-11H-10-oxa-1-aza-dibenzo[a,d]cyclohepten-5-ylidene]-propyl}-piperidin-4-ol]
IC50: < 1000 nM

Structure (SMILES): CC(C)(O)c1ccc2c(c1)C(=CCCN1CCC(O)(c3ccc(Cl)c([N+](=O)[O-])c3)CC1)c1cccnc1CO2 [Example 492, 4-(4-Chloro-3-nitro-phenyl)-1-{3-[7-(1-hydroxy-1-methyl-ethyl)-11H-10-oxa-1-aza-dibenzo[a,d]cyclohepten-5-ylidene]-propyl}-piperidin-4-ol]
IC50: < 10000 nM

Structure (SMILES): CCN(c1ccc(Cl)cc1)C1CCN(CCC=C2c3cc(C(C)(C)O)ccc3OCc3ncccc32)CC1 [Example 493, 2-[5-(3-{4-[(4-Chloro-phenyl)-ethyl-amino]-piperidin-1-yl}-propylidene)-5,11-dihydro-10-oxa-1-aza-dibenzo[a,d]cyclohepten-7-yl]-propan-2-ol]
IC50: < 10000 nM
